# Test results reported in ChEMBL document CHEMBL5233269, “Anticancer potential of spirocompounds in medicinal chemistry: A pentennial expedition” (Eur J Med Chem, 2021).
# Assays:
# HT-29 [1] = assay: Antiproliferative activity against human HT-29 cells assessed as inhibition of cell growth; assay type: functional, cell-based
# MCF7 [2] = assay: Antiproliferative activity against human MCF7 cells assessed as inhibition of cell growth; assay type: functional, cell-based
# A2780 = assay: Antiproliferative activity against human A2780 cells assessed as inhibition of cell growth; assay type: functional, cell-based
# HCT-116 [3] = assay: Anticancer activity against human HCT-116 cells incubated for 48 hrs by MTT assay; assay type: functional, cell-based; conditions: HCT-116, 48 h
# [4] = Anticancer activity against human U87 cells incubated for 48 hrs by MTT assay; assay type: functional, cell-based, U-87MG ATCC; conditions: U-87 MG
# MCF7 [5] = assay: Anticancer activity against human MCF7 cells incubated for 48 hrs by MTT assay; assay type: functional, cell-based; conditions: MCF7, 48 h
# HepG2 [6] = assay: Anticancer activity against human HepG2 cells incubated for 48 hrs by MTT assay; assay type: functional, cell-based; conditions: HepG2, 48 h
# A549 [7] = assay: Anticancer activity against human A549 cells incubated for 48 hrs by MTT assay; assay type: functional, cell-based; conditions: A549, 48 h
# A549 [8] = assay: Antiproliferative activity against human A549 cells assessed as reduction in cell viability; assay type: functional, cell-based
# HeLa [9] = assay: Antiproliferative activity against human HeLa cells; assay type: functional, cell-based
# MCF7 [10] = assay: Antiproliferative activity against human MCF7 cells assessed as reduction in cell viability; assay type: functional, cell-based
# MDA-MB-231 [11] = assay: Antiproliferative activity against human MDA-MB-231 cells; assay type: functional, cell-based
# HT-29 [12] = assay: Antiproliferative activity against human HT-29 cells incubated for 2 days by MTT assay; assay type: functional, cell-based; conditions: HT-29, 48 h
# HepG2 [13] = assay: Antiproliferative activity against human HepG2 cells incubated for 2 days by MTT assay; assay type: functional, cell-based; conditions: HepG2, 48 h
# T47D = assay: Antiproliferative activity against human T47D cells incubated for 2 days by MTT assay; assay type: functional, cell-based; conditions: 48 h
# MCF7 [14] = assay: Antiproliferative activity against human MCF7 cells incubated for 2 days by MTT assay; assay type: functional, cell-based; conditions: MCF7, 48 h
# HFF = assay: Antiproliferative activity against human HFF cells incubated for 2 days by MTT assay; assay type: functional, cell-based; conditions: 48 h
# [15] = molecular target: Tumour suppressor p53/oncoprotein Mdm2 (Homo sapiens) (UniProt P04637+Q00987); assay: Inhibition of MDM2/p53 (unknown origin) interaction at 10 uM relative to control; assay type: protein assay
# [16] = molecular target: cGMP-specific 3',5'-cyclic phosphodiesterase (Homo sapiens) (UniProt O76074); assay: Inhibition of PDE5 (unknown origin) at 3 nM relative to control
# [17] = Cytotoxicity against green monkey Vero cells; assay type: toxicity, cell-based; conditions: green monkey (Chlorocebus sabaeus)
# HeLa [18] = assay: Cytotoxicity against human HeLa cells; assay type: functional, cell-based
# L929 = assay: Cytotoxicity against mouse L929 cells at 50 ug/ml relative to control; assay type: toxicity, cell-based; conditions: at 50 µg/mL
# MDA-MB-231 [19] = assay: Cytotoxicity against human MDA-MB-231 cells at 50 ug/ml relative to control; assay type: functional; conditions: dose 50 µg/ml
# MCF7 [20] = assay: Antiproliferative activity against human MCF7 cells; assay type: functional, cell-based
# A549 [21] = assay: Antiproliferative activity against human A549 cells; assay type: functional, cell-based
# LNCaP = assay: Anticancer activity against human LNCaP cells at 100 uM relative to control; assay type: functional
# PC-3 [22] = assay: Anticancer activity against human PC-3 cells at 100 uM relative to control; assay type: functional
# A-375 [23] = assay: Cytotoxicity against human A-375 cells at 10 ug/ml incubated for 24 hrs by MTT assay; assay type: functional; conditions: dose 10 µg/ml
# A-375 [24] = assay: Cytotoxicity against human A-375 cells at 100 ug/ml incubated for 24 hrs by MTT assay; assay type: functional; conditions: dose 100 µg/ml
# Jurkat = assay: Antiproliferative activity against human Jurkat cells incubated for 72 hrs by MTT assay; assay type: functional, cell-based
# MDA-MB-231 [25] = assay: Antiproliferative activity against human MDA-MB-231 cells incubated for 72 hrs by MTT assay; assay type: functional, cell-based; conditions: MDA-MB-231, 72 h
# Caco-2 = assay: Antiproliferative activity against human Caco-2 cells incubated for 72 hrs by MTT assay; assay type: functional, cell-based; conditions: Caco-2, 72 h
# MCF7 [26] = assay: Antiproliferative activity against human MCF7 cells incubated for 72 hrs by MTT assay; assay type: functional, cell-based; conditions: MCF7, 72 h
# HeLa [27] = assay: Antiproliferative activity against human HeLa cells incubated for 72 hrs by MTT assay; assay type: functional, cell-based
# HCT-116 [28] = assay: Antiproliferative activity against human HCT-116 cells incubated for 72 hrs by MTT assay; assay type: functional, cell-based; conditions: HCT-116, 72 h
# CCRF-CEM = assay: Antiproliferative activity against human CEM cells incubated for 72 hrs by MTT assay; assay type: functional, cell-based
# A549 [29] = assay: Antiproliferative activity against human A549 cells incubated for 72 hrs by MTT assay; assay type: functional, cell-based; conditions: A549, 72 h
# [30] = Anticancer activity against human Panel (56 tumour cell lines) at 10 uM relative to control; assay type: functional
# [31] = test system: Panel NCI-60 (60 carcinoma cell lines); assay: Growth inhibition of human Panel NCI-60 (60 carcinoma cell lines) cells; assay type: functional
# MCF7 [32] = assay: Growth inhibition of human MCF7 cells assessed as reduction in cell viability by SRB assay; assay type: functional
# PC-3 [33] = assay: Growth inhibition of human PC-3 cells assessed as reduction in cell viability by SRB assay; assay type: functional
# COLO 205 = assay: Growth inhibition of human COLO 205 cells assessed as reduction in cell viability by SRB assay; assay type: functional
# HepG2 [34] = assay: Anticancer activity against human HepG2 cells assessed as reduction in cell viability; assay type: functional, cell-based
# MCF7 [35] = assay: Anticancer activity against human MCF7 cells assessed as reduction in cell viability; assay type: functional, cell-based
# Sequence of Tumour suppressor p53/oncoprotein Mdm2 (Homo sapiens) (P04637 whole entry, looked up): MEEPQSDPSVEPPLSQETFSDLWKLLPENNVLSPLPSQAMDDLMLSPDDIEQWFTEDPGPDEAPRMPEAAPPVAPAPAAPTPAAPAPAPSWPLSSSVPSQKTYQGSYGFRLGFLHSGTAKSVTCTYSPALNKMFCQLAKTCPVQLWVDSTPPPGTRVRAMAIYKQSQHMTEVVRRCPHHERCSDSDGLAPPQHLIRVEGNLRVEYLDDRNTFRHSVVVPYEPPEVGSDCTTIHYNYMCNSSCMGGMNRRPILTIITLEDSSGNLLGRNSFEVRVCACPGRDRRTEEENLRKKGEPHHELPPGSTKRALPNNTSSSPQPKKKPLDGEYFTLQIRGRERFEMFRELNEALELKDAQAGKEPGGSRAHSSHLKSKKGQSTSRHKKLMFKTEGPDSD
# Sequence of Tumour suppressor p53/oncoprotein Mdm2 (Homo sapiens) (Q00987 whole entry, looked up): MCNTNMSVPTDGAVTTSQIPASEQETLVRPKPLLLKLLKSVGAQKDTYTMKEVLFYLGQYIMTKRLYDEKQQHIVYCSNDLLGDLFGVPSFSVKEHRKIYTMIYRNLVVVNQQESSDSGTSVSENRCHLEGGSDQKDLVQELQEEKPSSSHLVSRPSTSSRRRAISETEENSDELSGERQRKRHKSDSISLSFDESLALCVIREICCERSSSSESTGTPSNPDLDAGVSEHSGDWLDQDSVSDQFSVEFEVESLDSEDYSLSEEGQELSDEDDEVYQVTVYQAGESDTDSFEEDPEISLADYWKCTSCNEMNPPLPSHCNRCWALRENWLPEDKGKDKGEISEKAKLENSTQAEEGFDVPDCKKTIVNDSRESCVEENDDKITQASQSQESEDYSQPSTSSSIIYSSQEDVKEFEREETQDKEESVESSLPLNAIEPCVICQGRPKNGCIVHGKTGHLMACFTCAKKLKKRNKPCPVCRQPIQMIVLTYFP
smiles,measurement,setting,value
O=C1CC2(CCN(S(=O)(=O)c3ccccc3)CC2)Oc2ccccc21,IC50,HT-29 [1],470 nM
same,IC50,MCF7 [2],5.62 µM
same,IC50,A2780,310 nM
CCOC(=O)[C@H]1[C@@H](NO)[C@@H]2c3ccccc3OC(C)(C)[C@H]2[C@H](O)[C@]12C(=O)Nc1ccc(Cl)cc12,IC50,HCT-116 [3],13 µM
same,IC50,[4],37.5 µM
same,IC50,MCF7 [5],1700 nM
same,IC50,HepG2 [6],18.4 µM
same,IC50,A549 [7],5.9 µM
COc1ccc(-n2nc(-c3ccccc3)nc2N2C(=O)COC23C=CC(=O)C=C3)cc1,IC50,A549 [8],26.8 nM
same,IC50,HeLa [9],10 nM
same,IC50,MCF7 [10],88.8 nM
same,IC50,MDA-MB-231 [11],27.7 nM
COc1cc(C2=NOC3(Cc4ccccc4C3=O)C2c2ccc(S(C)(=O)=O)cc2)cc(OC)c1OC (configuration not stated),IC50,HT-29 [12],69.3 µM
same,IC50,HepG2 [13],86 nM
same,IC50,T47D,70 nM
same,IC50,MCF7 [14],24.2 µM
same,IC50,HFF,2320 nM
CCOC(=O)C1CN(C(=O)N2CCCCC2)C2(C(=O)Nc3ccccc32)C1c1ccccc1O (configuration not stated),inhibition,[15],57.7%
CCOC(=O)N1CCC2(CC1)NC(=O)c1ccccc1N2,inhibition,[16],100%
O=C(c1ccccn1)[C@@H]1[C@@H](c2ccc(Cl)cc2Cl)[C@H](c2ccccc2)NC12C(=O)Nc1ccccc12 (some centres not stated),IC50,[17],17 µg/mL
same,IC50,HeLa [18],16 µg/mL
O=C1CC2(CCN(S(=O)(=O)c3cccc4ccccc34)CC2)Oc2ccccc21,IC50,HT-29 [1],690 nM
same,IC50,MCF7 [2],6.02 µM
same,IC50,A2780,316 nM
CN1CCN(Cc2ccc([N+](=O)[O-])cc2)P12=NP(N1CCCC1)(N1CCCC1)=NP(N1CCCC1)(N1CCCC1)=N2 (configuration not stated),Activity,L929,70%
same,Activity,MDA-MB-231 [19],30%
N#CC1=C(N)Oc2c(c(=O)oc3ccccc23)C12C(=O)N(Cc1cccc(Br)c1)c1ccccc12 (configuration not stated),IC50,MCF7 [20],16.2 µM
same,IC50,A549 [21],29.3 µM
O=C(/C=C/c1ccc(F)cc1)c1ccc(OP2(Oc3ccc(C(=O)/C=C/c4ccc(F)cc4)cc3)=NP3(=NP4(=N2)Oc2ccccc2-c2ccccc2O4)Oc2ccccc2-c2ccccc2O3)cc1,Activity,LNCaP,57.66%
same,Activity,PC-3 [22],35.93%
O=C(c1ccccn1)[C@@H]1[C@@H](c2ccccc2Cl)[C@H](c2ccccc2)NC12C(=O)Nc1ccccc12 (some centres not stated),IC50,[17],> 110 µg/mL
same,IC50,HeLa [18],70 µg/mL
CN1CC(n2ccc3ccccc32)C(C#N)(C#N)C12C(=O)N(Cc1ccccc1)c1ccccc12 (configuration not stated),Activity,A-375 [23],97.29%
same,Activity,A-375 [24],95.86%
CCC(C)N1C(=O)C2(C(C#N)=C(N)Oc3c2c(=O)oc2ccccc32)c2ccccc21 (configuration not stated),IC50,MCF7 [20],37.6 µM
same,IC50,A549 [21],34.1 µM
CON1c2ccccc2[C@@]2(CN=C(Nc3cc(C(F)(F)F)cc(C(F)(F)F)c3)S2)[C@@H]1Nc1cc(C(F)(F)F)cc(C(F)(F)F)c1,IC50,Jurkat,2000 nM
same,IC50,MDA-MB-231 [25],4 µM
same,IC50,Caco-2,47 µM
same,IC50,MCF7 [26],2000 nM
same,IC50,HeLa [27],3000 nM
same,IC50,HCT-116 [28],65.1 µM
same,IC50,CCRF-CEM,5 µM
same,IC50,A549 [29],2000 nM
CCOC(=O)[C@H]1[C@@H](NO)[C@@H]2c3ccccc3OC(C)(C)[C@H]2[C@H](O)[C@]12C(=O)Nc1ccc(F)cc12,IC50,HCT-116 [3],25.4 µM
same,IC50,[4],41.9 µM
same,IC50,MCF7 [5],2500 nM
same,IC50,HepG2 [6],16.2 µM
same,IC50,A549 [7],4.8 µM
O=C1NC2(CCNCC2)Nc2ccccc21,inhibition at 10 µM,[30],100%
C1=CC2=CC3CCCC4=Cc5ccccc5OC43OC2C=C1 (configuration not stated),GI50,[31],< 10 µM
CCOP1(=O)N(CC)N=NC12SC1=CCCCC1=C2C#N (configuration not stated),GI50,MCF7 [32],5.03 µM
same,GI50,PC-3 [33],9.97 µM
same,GI50,COLO 205,17.8 µM
O=C1NC2(CCCCC2)Nc2ccccc21,inhibition,[16],100%
N#Cc1c(N)nc2c(c1-c1ccc(Cl)cc1)SC1(CCCCC1)N2c1ccc(N)cc1,IC50,HepG2 [34],14.3 µg/mL
same,IC50,MCF7 [35],30 µg/mL
